Columns and labels:
[1] = target: T1, Bifunctional dihydrofolate reductase-thymidylate synthase (Toxoplasma gondii, UniProt Q07422); experiment: Inhibition of Toxoplasma gondii dihydrofolate reductase
T1 sequence (Q07422 whole entry): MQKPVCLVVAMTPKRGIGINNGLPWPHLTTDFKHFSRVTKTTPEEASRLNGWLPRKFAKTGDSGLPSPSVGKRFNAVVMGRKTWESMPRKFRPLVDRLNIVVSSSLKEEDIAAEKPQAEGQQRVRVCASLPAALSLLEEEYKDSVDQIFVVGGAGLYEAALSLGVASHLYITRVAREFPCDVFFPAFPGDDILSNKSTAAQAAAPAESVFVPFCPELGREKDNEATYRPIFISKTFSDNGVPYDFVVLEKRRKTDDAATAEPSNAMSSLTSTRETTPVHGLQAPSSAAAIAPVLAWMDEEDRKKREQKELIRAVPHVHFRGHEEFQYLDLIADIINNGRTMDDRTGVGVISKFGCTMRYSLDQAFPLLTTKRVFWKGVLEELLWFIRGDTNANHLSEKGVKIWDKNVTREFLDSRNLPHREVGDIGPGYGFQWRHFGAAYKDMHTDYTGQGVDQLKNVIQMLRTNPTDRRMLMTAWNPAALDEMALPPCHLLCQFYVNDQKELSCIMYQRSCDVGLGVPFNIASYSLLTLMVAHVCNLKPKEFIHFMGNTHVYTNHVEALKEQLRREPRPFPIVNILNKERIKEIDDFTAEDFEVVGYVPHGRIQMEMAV

Dihydrofolate reductase [2] = target: T2, Dihydrofolate reductase (Rattus norvegicus, UniProt Q920D2)
T2 sequence (Q920D2 whole entry): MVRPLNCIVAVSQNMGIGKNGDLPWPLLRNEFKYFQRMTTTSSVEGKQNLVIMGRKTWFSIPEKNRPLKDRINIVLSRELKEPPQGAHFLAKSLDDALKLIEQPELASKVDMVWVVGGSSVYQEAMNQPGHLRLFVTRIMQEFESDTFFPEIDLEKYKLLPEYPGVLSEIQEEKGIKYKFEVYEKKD
Description: Inhibition of rat liver dihydrofolate reductase

Dihydrofolate reductase [3] = target: T3, Dihydrofolate reductase (Pneumocystis carinii, UniProt P16184)
T3 sequence (P16184 whole entry): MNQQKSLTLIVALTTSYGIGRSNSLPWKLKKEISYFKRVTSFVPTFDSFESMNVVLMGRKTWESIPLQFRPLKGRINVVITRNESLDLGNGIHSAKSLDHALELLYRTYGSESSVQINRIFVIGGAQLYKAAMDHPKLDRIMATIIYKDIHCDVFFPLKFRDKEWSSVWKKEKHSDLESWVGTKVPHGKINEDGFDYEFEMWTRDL
Description: Inhibition of Pneumocystis carinii dihydrofolate reductase

[4] = target: T4, Dihydrofolate reductase (Rattus norvegicus) (UniProt Q920D2); experiment: Percent inhibition against rat liver Dihydrofolate reductase; design: concentration or dose not given beside the values; settings: concentration not given here
T4 sequence (whole entry): T2 sequence (Q920D2 whole entry)

[5] = target: T5, Bifunctional dihydrofolate reductase-thymidylate synthase (Toxoplasma gondii) (UniProt Q07422); experiment: Percent inhibition against Toxoplasma gondii Dihydrofolate reductase; settings: concentration not given here
T5 sequence (whole entry): T1 sequence (Q07422 whole entry)

inhibition [4]	SMILES	IC50 [1]	IC50 (Dihydrofolate reductase [2])	IC50 (Dihydrofolate reductase [3])	inhibition [5]
–	COc1cc(-c2nc3nc(N)nc(N)c3[nH]2)cc(OC)c1OC	2.2 µM	13 µM	59.4 µM	–
–	COc1cc(OC)c(-c2nc3nc(N)nc(N)c3[nH]2)c(OC)c1	0.84 µM	1.88 µM	31.5 µM	–
–	Nc1nc(N)c2[nH]c(-c3ccc(Cl)c(Cl)c3)nc2n1	6.7 µM	252 µM	–	–
–	Nc1nc(N)c2nc(C3c4ccccc4-c4ccccc43)[nH]c2n1	–	–	35 µM	–
–	Nc1nc(N)c2nc(Cc3ccccc3)[nH]c2n1	0.5 µM	1.6 µM	–	–
4%	Nc1nc(N)c2[nH]c(-c3c(Cl)cccc3Cl)nc2n1	11 µM	11 µM	11 µM	6%
–	COc1ccc(-c2nc3nc(N)nc(N)c3[nH]2)c(OC)c1	2.4 µM	0.9 µM	14 µM	–
–	COc1ccc(-c2nc3c(N)nc(N)nc3[nH]2)cc1OC	–	52.3 µM	12 µM	–
–	COc1cc(-c2nc3nc(N)nc(N)c3[nH]2)c([N+](=O)[O-])cc1OC	–	25 µM	25 µM	–
–	Nc1nc(N)c2nc(-c3ccc4ccccc4c3)[nH]c2n1	27 µM	280 µM	113 µM	–
–	Nc1nc(N)c2nc(-c3ccccc3)[nH]c2n1	28 µM	59.9 µM	153 µM	–
–	Nc1nc(N)c2[nH]c(CSc3ccc4ccccc4c3)nc2n1	45 µM	107 µM	105 µM	–
15%	COc1ccc(-c2nc3[nH]c(N)nc(N)c-3n2)c2ccccc12	13 µM	13 µM	13 µM	10%
–	Nc1nc(N)c2[nH]c(-c3ccc(-c4ccccc4)cc3)nc2n1	32.9 µM	30.1 µM	605 µM	–
–	COc1ccc(-c2nc3c(N)nc(N)nc3[nH]2)c(OC)c1OC	1.8 µM	3.7 µM	17 µM	–
–	COc1cc(OC)cc(-c2nc3nc(N)nc(N)c3[nH]2)c1	3 µM	32.4 µM	–	–
–	COc1ccc(OC)c(-c2nc3nc(N)nc(N)c3[nH]2)c1	1.7 µM	3.5 µM	37.4 µM	–
14%	COc1cc(-c2nc3[nH]c(N)nc(N)c-3n2)c([N+](=O)[O-])cc1OC	–	–	–	–
–	COc1cc(-c2nc3c(N)nc(N)nc3[nH]2)cc(OC)c1O	1 µM	15.3 µM	68 µM	–
–	COc1cc(OC)c(-c2nc3nc(N)nc(N)c3[nH]2)cc1OC	1.5 µM	7 µM	22 µM	–
0%	Nc1nc(N)c2[nH]c(-c3ccncc3)nc2n1	20 µM	18 µM	18 µM	14%
19%	COc1cc(NCc2nc3[nH]c(N)nc(N)c-3n2)cc(OC)c1OC	–	–	–	5%

SMILES	inhibition [4]	IC50 [1]	IC50 (Dihydrofolate reductase [2])	IC50 (Dihydrofolate reductase [3])	inhibition [5]
COc1ccc(OC)c(NCc2nc3c(N)nc(N)nc3[nH]2)c1	15%	49 µM	29 µM	29 µM	–

From ChEMBL document CHEMBL1130150, “Conformationally restricted analogues of trimethoprim: 2,6-diamino-8-substituted purines as potential dihydrofolate reductase inhibitors from Pneumocystis carinii and Toxoplasma gondii” (J Med Chem, 1997)
